Measurements as given in US5059624A, “Guanidine derivatives having hypotensive activity, composition containing them and process for obtaining them” (Consiglio Nazionale Delle Ricerche, priority 1988, dated 1991).
Like-named read-outs stand apart in the source and are kept apart here. Where a SMILES comes first, the peptide text is derived from it.

Assays:
male Wistar rats [1] = assay: Comparison with known active ingredients in male Wistar rats under sodium thiopental anaesthesia, rapid i.v. or 5 min infusion; type: in vivo, rat (male Wistar)
Method: In order to compare the activity of the compounds of the present invention to that of the products of the prior art, various doses of known anti-hypertensive, hypotensive and vasoactive drugs were administered to male Wistar rats under general anaesthesia by sodium thiopental (50 mg/kg, i.p.). The administration was effected through "rapid" i.v. route or through intravenous infusion (inf.) for a time of 5 minutes.
The dose of each product is referred to the base, and the volumes injected were of 100 mcl in case of i.v. administration and […] total (0.9% sodium chloride solution) in case of infusion. The various parameters were evaluated in the same way as in the preceding experiments.

[2] = Lethal dose 50 (LD50) through i.p. route in mice; details: mouse, in vivo, ip
Method: The lethal dose 50 (LD50) of guanido-I through i.p. route in mice turned out to be 57 mg±3.6 per kg.
The lethal dose 50 (LD50) of the diguanido-II through i.p. route in mice, turned out to be 7 mg±0.6 per kg.

male Wistar rats [3] = system: male Wistar rats
Method: In order to check its activity, diguanido-II was dissolved in a 0.9 % sodium chloride solution and administered through "rapid" i.v. route in male Wistar rats, under general anaesthesia obtained by means of 10% ethyl urethan (i ml/hg).
The active ingredients called guanido-III, -IV, -V, as well as agmatine and galegine, were also tested, after having been administered through "rapid" i.v. route in male Wistar rats (weighing average 280±5 g) under general anaesthesia obtained by means of 10% ethyl uretan (1 ml/hg, i.p.). The general experimental conditions were exactly the same as previously mentioned for guanido-I and diguanido-II, so that the cardiovascular and respiratory effects could be compared.
The parameters measured are as follows: systolic and diastolic systemic arterial pressure (AP), heart rate (HR), maximum rate of increase in the left ventricular isovolumetric pressure (dp/dt), respiratory frequency (RF) and tidal volume (TV). The doses (in μg/kg body weight, referred to the active substance) varied from 50 μg/kg to 6,400 μg/kg (ratio=2.0); in some cases higher does have been employed.

[4] = 1 mcg/kg, i.v., maximum response
[5] = 5 mg/kg, inf., maximum response
[6] = 5 mcg/kg, i.v., maximum response
[7] = 2 mg/kg, i.v., maximum response
[8] = 0.75 mcg/kg, i.v., maximum response
[9] = 2.5 mg/kg, i.v., maximum response

## Clc1cccc(Cl)c1N=C1NCCN1 [Clonidine]
Male Wistar rats [1]; rat, in vivo
  general effects on the various haemodynamic parameters (in words): general "depressive" effects
  Δ AP DIASTOLIC: -9 ± 1 mmHg
  Δ AP SYSTOLIC: -15 ± 4 mmHg
  Δ HR: -40 ± 8 beats/min
  Δ dp/dt: -871 ± 74

## NC[C@H](O)c1ccc(O)c(O)c1 [Noradrenaline]
Male Wistar rats [1]; [4]
  Δ AP DIASTOLIC: +31 ± 2 mmHg
  Δ AP SYSTOLIC: +44 ± 3 mmHg
  Δ HR: +14 ± 4 beats/min
  Δ dp/dt: +4314 ± 415 mmHg/sec

## COC(=O)[C@H]1[C@H]2C[C@@H]3c4[nH]c5cc(OC)ccc5c4CCN3C[C@H]2C[C@@H](OC(=O)c2cc(OC)c(OC)c(OC)c2)[C@@H]1OC [Reserpine]
Male Wistar rats [1]; [5]
  Δ AP DIASTOLIC: -24 ± 5 mmHg
  Δ AP SYSTOLIC: -31 ± 6 mmHg
  Δ HR: -47 ± 9 beats/min
  Δ dp/dt: -1580 ± 134 mmHg/sec
Male Wistar rats [1]; rat
  general effects on the various haemodynamic parameters (in words): general "depressive" effects

## NCCc1c[nH]cn1 [Histamine]
Male Wistar rats [1]; [6]
  Δ AP DIASTOLIC: -28 ± 3 mmHg
  Δ AP SYSTOLIC: -30 ± 3 mmHg
  Δ HR: -7 ± 1 beats/min
  Δ dp/dt: -1314 ± 180 mmHg/sec

## COc1ccc(Cc2nccc3cc(OC)c(OC)cc23)cc1OC [Papaverine]
Male Wistar rats [1]; [7]
  Δ AP DIASTOLIC: -18 ± 3 mmHg
  Δ AP SYSTOLIC: -23 ± 3 mmHg
  Δ HR: -21 ± 5 beats/min
  Δ dp/dt: -604 ± 102 mmHg/sec
Male Wistar rats [1]; rat
  general effects on the various haemodynamic parameters (in words): general "depressive" effects

## NC(N)=NCCC[C@H](NC(=O)[C@H](Cc1ccccc1)NC(=O)[C@@H]1CCCN1C(=O)[C@H](CO)NC(=O)[C@H](Cc1ccccc1)NC(=O)CNC(=O)[C@@H]1CCCN1C(=O)[C@@H]1CCCN1C(=O)[C@@H](N)CCCN=C(N)N)C(=O)O [Bradykinin] (H-RPPGFSPFR-OH)
Male Wistar rats [1]; [8]
  Δ AP DIASTOLIC: -18 ± 4 mmHg
  Δ AP SYSTOLIC: -18 ± 3 mmHg
  Δ HR: -11 ± 2 beats/min
  Δ dp/dt: -830 ± 124 mmHg/sec

## COc1ccc(C=CC(=O)NCCCCNC(=N)NCC=C(C)C)cc1OC [guanido-I]
[2]
  LD50: 57 mg/kg
Male Wistar rats [3]; 50 μg/kg i.v.
  Δ AP DIAST: -5 ± 1 mmHg
  Δ AP SYST: -4 ± 2 mmHg
  Δ HR: +8 ± 3 beats/min
  Δ RF: +6 ± 2 acts/min
  Δ dp/dt: +52 ± 8 mmHg/sec
Male Wistar rats [3]; 100 μg/kg i.v.
  Δ AP DIAST: -6 ± 2 mmHg
  Δ AP SYST: -6 ± 2 mmHg
  Δ HR: +10 ± 1 beats/min
  Δ RF: +9 ± 4 acts/min
  Δ dp/dt: +141 ± 25 mmHg/sec
Male Wistar rats [3]; 200 μg/kg i.v.
  Δ AP DIAST: -10 ± 2 mmHg
  Δ AP SYST: -11 ± 3 mmHg
  Δ HR: +13 ± 2 beats/min
  Δ RF: +12 ± 2 acts/min
  Δ dp/dt: +1284 ± 78 mmHg/sec
Male Wistar rats [3]; 400 μg/kg i.v.
  Δ AP DIAST: -14 ± 3 mmHg
  Δ AP SYST: -15 ± 4 mmHg
  Δ HR: +14 ± 5 beats/min
  Δ RF: +16 ± 3 acts/min
  Δ dp/dt: +1712 ± 107 mmHg/sec
Male Wistar rats [3]; 800 μg/kg i.v.
  Δ AP DIAST: -15 ± 3 mmHg
  Δ AP SYST: -17 ± 3 mmHg
  Δ HR: +18 ± 4 beats/min
  Δ RF: +25 ± 6 acts/min
  Δ dp/dt: +2140 ± 263 mmHg/sec
Male Wistar rats [3]; 1600 μg/kg i.v.
  Δ AP DIAST: -18 ± 4 mmHg
  Δ AP SYST: -21 ± 6 mmHg
  Δ HR: +22 ± 3 beats/min
  Δ RF: +23 ± 9 acts/min
  Δ dp/dt: +2996 ± 104 mmHg/sec
Male Wistar rats [3]; 3200 μg/kg i.v.
  Δ AP DIAST: -29 ± 4 mmHg
  Δ AP SYST: -25 ± 5 mmHg
  Δ HR: +25 ± 8 beats/min
  Δ RF: +26 ± 7 acts/min
  Δ dp/dt: +2984 ± 362 mmHg/sec
Male Wistar rats [3]; 6400 μg/kg i.v.
  Δ AP DIAST: -29 ± 2 mmHg
  Δ AP SYST: -34 ± 4 mmHg
  Δ HR: +20 ± 4 beats/min
  Δ RF: +29 ± 5 acts/min
  Δ dp/dt: +3074 ± 441 mmHg/sec
Male Wistar rats [3]; i.v., 50-6400 μg/kg, rat
  effect on AP (in words): lowers the value of AP according to a linear dependence on the dose
  effect on HR, dp/dt and RF (in words): causes an increase in the values of HR, dp/dt and RF
Male Wistar rats [3]; i.v., rat
  cardiovascular and respiratory effects (in words): giving hypotensive responses while increasing heart rate and inotropism as well as respiratory rate
  changes in the tidal volume (TV) (in words): a linear increase has been observed with the doses
  correlation with peripheral adrenergic receptors (α1-α2; β1-β2) (in words): do not seem to be correlated to significative actions of the active ingredient at the level of the peripheral adrenergic receptors

## C[N+](C)(C)CCCCCC[N+](C)(C)C [Hexameton]
Male Wistar rats [1]; [9]
  Δ AP DIASTOLIC: -34 ± 2 mmHg
  Δ AP SYSTOLIC: -44 ± 2 mmHg
  Δ HR: -48 ± 9 beats/min
  Δ dp/dt: -4040 ± 812 mmHg/sec

## N=C(N)NCCN1CCCCCCC1 [Guanetidine]
Male Wistar rats [1]; rat, in vivo
  Δ HR: -18 ± 6 beats/min
  Δ dp/dt: -863 ± 160

## NCCc1c[nH]c2ccc(O)cc12 [5-hydroxytriptamine]
Male Wistar rats [1]; [6]
  Δ AP DIASTOLIC: -39 ± 2 mmHg
  Δ AP SYSTOLIC: -37 ± 3 mmHg
  Δ HR: -12 ± 3 beats/min
  Δ dp/dt: -1410 ± 167 mmHg/sec
